Reference: patent publication US9504685B2, “Method for treating a pulmonary hypertension condition” (Gilead Sciences, Inc., priority 2006, dated 2016)

Test system: subjects with PAH
Experiment: Example 2 (ARIES-1) placebo-controlled Phase III trial, efficacy
Format: in vivo, human
Details: for change from baseline in mean 6MWD at Week 12: subjects who received supplemental oxygen
Method: The primary objective of this study was to determine the effect of ambrisentan on exercise capacity in subjects with pulmonary arterial hypertension (PAH). The secondary objectives of this study were to evaluate effects of ambrisentan on other clinical measures of PAH, as well as safety and tolerability of the study drug.
Study drug was provided in round, biconvex, oral tablets that were identical in appearance. Three strengths of active study drug containing 2.5 mg, 5 mg or 10 mg of ambrisentan were used in this study. All study drug was packaged in blister cards. Subjects were instructed to take study drug once daily (q.d.) by mouth (p.o.) in the morning, with or without food.
The maximum study duration was up to 14 weeks from the time of initial screening procedures to the final study visit (Week 12). Screening procedures were performed a maximum of 2 weeks prior to the first dose of study drug. The maximum duration of study drug treatment was 12 weeks.
Men and women, 18 years of age or older, with idiopathic PAH, PAH associated with CTD, e.g., mixed CTD, CREST syndrome, systemic sclerosis (scleroderma), overlap syndrome or systemic lupus erythematosus, or PAH associated with anorexigen use or HIV infection were enrolled in this study. Subjects were to have a documented mean PAP≧25 mmHg, PVR>3 mmHgL/min, and PCWP or LVEDP<15 mmHg. Subjects must have been able to walk a distance of at least 150 m but no more than 450 m during 2 consecutive 6MWTs to be eligible for inclusion in the study.
After a 2 week screening period, eligible subjects were stratified based on the underlying etiology of PAH (idiopathic or non-idiopathic) and were randomized to 1 of 3 treatment groups (placebo, 5 mg or 10 mg ambrisentan) in a ratio of 1:1:1. One blinded dose reduction was permitted during the 12-week treatment period in the event of study drug intolerance (e.g., 10 mg to 5 mg, 5 mg to 2.5 mg, placebo to placebo). Subjects received a daily dose of 2.5 mg ambrisentan only if they reduced from the 5 mg dose group. Subjects were assessed for efficacy and safety at monthly intervals.
Therefore, after a minimum treatment period of 4 weeks, subjects who met 2 or more of the following predefined early escape criteria may have been removed from the study: • (a) a decrease from baseline of at least 20% in 6MWD; • (b) an increase of 1 or more WHO functional class; • (c) worsening right ventricular failure (e.g., as indicated by increased jugular venous pressure, new or worsening hepatomegaly, ascites or peripheral edema); • (d) rapidly progressing cardiogenic, hepatic or renal failure; and/or • (e) refractory systolic hypotension (systolic blood pressure <85 mmHg).
The primary efficacy endpoint was change from baseline in 6MWD evaluated after 12 weeks of treatment compared to placebo.
The secondary efficacy endpoints included: • (a) time to clinical worsening of PAH, as defined by the time from randomization to the first occurrence of death, lung transplantation, hospitalization for PAH, atrial septostomy, study discontinuation due to addition of other PAH therapeutic agents, or study discontinuation due to 2 or more early escape criteria; • (b) change from baseline measured after 12 weeks of treatment compared to placebo in: • (i) WHO functional class; • (ii) SF-36® health survey physical functioning scale; • (iii) BDI immediately following exercise; and/or • (iv) an assessment of the safety and tolerability of the study drug; and • (c) change from baseline measured after 12 weeks of treatment compared to placebo in plasma levels of ET-1, BNP and cTnT. Safety Assessments
For the ITT population, subjects were considered as belonging to their randomized treatment group, regardless of the actual treatment received.
The primary efficacy endpoint was the change from baseline in 6MWD evaluated after 12 weeks of treatment compared to placebo, where the last observation was carried forward. […]

[1] = 10 mg once daily, baseline to Week 12
[2] = combined 5 mg and 10 mg groups, 12 weeks
[3] = combined 5 mg and 10 mg groups, Week 12
[4] = combined 5 mg and 10 mg groups, baseline to Week 12

## COC(c1ccccc1)(c1ccccc1)[C@H](Oc1nc(C)cc(C)n1)C(=O)O [ambrisentan]
[1]
  Change in SF-36 Social functioning, mean (SD): +4.11 ± 11.77
  Change in SF-36 Vitality, mean (SD): +5.03 ± 10.07
  Change in WHO functional class: +1 class: 3 (4.5) subjects (% of ITT population)
  Change in WHO functional class: +2 classes: 0 (0.0) subjects (% of ITT population)
  Change in WHO functional class: no change: 44 (65.7) subjects (% of ITT population)
  Change in WHO functional class: −1 class: 15 (22.4) subjects (% of ITT population)
  Change in WHO functional class: −2 classes: 5 (7.5) subjects (% of ITT population)
WHO class I/II subgroup, 5 mg once daily
  placebo-adjusted 6MWD increase from baseline at Week 12: +25.6 m
WHO class I/II subgroup, 10 mg once daily
  placebo-adjusted 6MWD increase from baseline at Week 12: +42.0 m
WHO class III/IV subgroup, 5 mg once daily
  placebo-adjusted 6MWD increase from baseline at Week 12: +34.1 m
WHO class III/IV subgroup, 10 mg once daily
  placebo-adjusted 6MWD increase from baseline at Week 12: +56.9 m
Combined 5 mg and 10 mg groups
  placebo-adjusted BDI at Week 12: −0.6
[2]
  Clinical worsening event: Atrial septostomy: 0 (0.0) subjects (% of ITT population)
  Clinical worsening event: Death: 2 (1.5) subjects (% of ITT population)
  Clinical worsening event: Escape criteria: 2 (1.5) subjects (% of ITT population)
  Clinical worsening event: Hospitalization for PAH: 4 (3.0) subjects (% of ITT population)
  Clinical worsening event: Lung transplantation: 0 (0.0) subjects (% of ITT population)
  Clinical worsening event: Study discontinuation due to addition of PAH treatment: 1 (0.7) subjects (% of ITT population)
  Clinical worsening: Total subjects with ≧1 event: 6 (4.5) subjects (% of ITT population)
Combined 5 mg and 10 mg groups, ITT population
  Change in 6MWD from baseline to Week 12, mean: +33.2 meters
[3]
  subjects who deteriorated by at least 1 WHO class: 3.0%
  subjects who had an improvement of 2 WHO classes: 4.5%
[4]
  Change in SF-36 Bodily pain, mean (SD): +0.42 ± 12.81
  Change in SF-36 General health, mean (SD): +1.66 ± 8.74
  Change in SF-36 Mental component summary, mean (SD): +1.30 ± 11.89
  Change in SF-36 Mental health, mean (SD): +1.18 ± 11.23
  Change in SF-36 Physical component summary, mean (SD): +3.34 ± 8.40
  Change in SF-36 Role-emotional, mean (SD): +2.19 ± 15.71
  Change in SF-36 Role-physical, mean (SD): +5.45 ± 10.47
  Change in SF-36 Social functioning, mean (SD): +2.61 ± 12.78
  Change in SF-36 Vitality, mean (SD): +3.71 ± 10.11
  Change in WHO functional class: +1 class: 4 (3.0) subjects (% of ITT population)
  Change in WHO functional class: +2 classes: 0 (0.0) subjects (% of ITT population)
  Change in WHO functional class: no change: 91 (67.9) subjects (% of ITT population)
  Change in WHO functional class: −1 class: 33 (24.6) subjects (% of ITT population)
  Change in WHO functional class: −2 classes: 6 (4.5) subjects (% of ITT population)
Female subjects, 5 mg once daily
  placebo-adjusted 6MWD increase from baseline at Week 12: +30.9 m
Female subjects, 10 mg once daily
  placebo-adjusted 6MWD increase from baseline at Week 12: +57.7 m
Idiopathic PAH subgroup, 5 mg once daily
  placebo-adjusted 6MWD increase from baseline at Week 12: +42.9 m
Idiopathic PAH subgroup, 10 mg once daily
  placebo-adjusted 6MWD increase from baseline at Week 12: +56.9 m
Male subjects, 5 mg once daily
  placebo-adjusted 6MWD increase from baseline at Week 12: +19.9 m
Male subjects, 10 mg once daily
  placebo-adjusted 6MWD increase from baseline at Week 12: +13.1 m
non-idiopathic PAH subgroup, 5 mg once daily
  placebo-adjusted 6MWD increase from baseline at Week 12: +10.2 m
non-idiopathic PAH subgroup, 10 mg once daily
  placebo-adjusted 6MWD increase from baseline at Week 12: +43.0 m
Subjects not receiving calcium channel blockers, 5 mg once daily
  placebo-adjusted 6MWD increase from baseline at Week 12: +38.7 m
Subjects not receiving calcium channel blockers, 10 mg once daily
  placebo-adjusted 6MWD increase from baseline at Week 12: +67.9 m
Subjects receiving ambrisentan (combined group), 12 weeks
  reduction in the probability of clinical worsening (hazard ratio) compared to placebo: 50%
Subjects receiving ambrisentan (combined), 12 weeks
  subjects hospitalized for PAH: 3.0%
Subjects receiving calcium channel blockers, 5 mg once daily
  placebo-adjusted 6MWD increase from baseline at Week 12: +15.1 m
Subjects receiving calcium channel blockers, 10 mg once daily
  placebo-adjusted 6MWD increase from baseline at Week 12: +19.6 m
5 mg once daily
  change from baseline in mean 6MWD at Week 12: +21.1 m
10 mg once daily
  change from baseline in mean 6MWD at Week 12: +48.0 m
